Laboratory results as given in patent US12048742B2, “Hepatitis C virus peptide compositions and methods of use thereof” (The Governors of the University of Alberta, priority 2018, dated 2024).
Where “and” joins values, the source holds several entries; their conditions need not be identical. Equal entries are not always repeated. No end group written: not given here.

Key:
[1] = Solubility of T-cell epitope polypeptides in E1E2 buffer (Protocol 1); type: physicochemical; details: for solubility in E1E2 buffer (in words): Protocol 1, 1 mg/ml in E1E2 buffer, Nanodrop, FIG. 6, estimates based on A280 nm reading; for solubility: E1E2 buffer (10 mM sodium citrate, 250 mM NaCl, 1 mM EDTA, 0.1% TWEEN 80, pH 6.0), without adding dimethylsulfoxide, read-out: soluble in E1E2 buffer at a concentration of
Description: For example, the peptides TP35-NS3 and TP50C are soluble in E1E2 buffer at a concentration of at least 1 mg/ml. The peptides TP35-NS3 and TP50C are soluble in E1E2 buffer at a concentration of at least 1 mg/ml, without the need for adding dimethylsulfoxide (DMS). In some cases, a T-cell epitope polypeptide suitable for inclusion in a composition of the present disclosure is soluble in E1E2 buffer at a concentration of at least 25 μg/ml, at least 30 μg/ml, at least 35 µg/ml, at least 50 μg/ml, at least 75 μg/ml, at least 100 μg/ml, at least 250 μg/ml, at least 500 µg/ml, at least 750 μg/ml, or at least 1 mg/ml.
Protocol 1 The solubility of the T-cell epitope polypeptides in E1E2 buffer was determined. E1E2 buffer: 10 mM sodium citrate, 250 mM NaCl, 1 mM ethylenediaminetetraacetic acid (EDTA), 0.1% non-ionic detergent TWEEN® 80, pH 6.0. Lyophilized T-cell epitope polypeptides were individually added to E1E2 buffer at a final concentration of 1 mg T-cell epitope polypeptide per ml E1E2 buffer, to generate T-cell epitope polypeptide/E1E2 solutions. The T-cell epitope polypeptide/E1E2 solutions were vortexed for 3 seconds. The T-cell epitope polypeptide/E1E2 solutions were then centrifuged at 10,000×g for 30 seconds. […] After centrifugation, the concentration of peptides was measured using Nanodrop (Thermo Fisher).
Solubility values shown in FIG. 6 are estimates based on A280 nm reading.

FIG. 6 = test: FIG. 6
Excerpt: Table printed on a drawing sheet, FIG. 6
The patent's description of the figure: FIG. 6 provides the solubility of various T-cell epitope polypeptides in an aqueous buffer. TP35-NS3: SEQ ID NO:133; TP35-NS3(Lys)3: SEQ ID NO:302; TP42: SEQ ID NO:228; TP45 (C-terminal CNV replaced with KKK): SEQ ID NO:248; TP48: SEQ ID NO:254; TP48(Lys)3: SEQ ID NO:257; and TP50-C: SEQ ID NO:148.
First reader's note: Blanks inside the sequences only mark line breaks within the printed cell.

[2] = Solubility of reconstituted lyophilized peptides (Protocol 3); type: physicochemical; details: Protocol 3, reconstituted in E1E2 buffer, E1E2 buffer without Tween, or water; shaking 2 h 30 min at room temperature; FIG. 13
Description: Protocol 3 TP42, TP45(Lys)3, and TP48 were lyophilized. The lyophilized peptides were reconstituted in: i) E1E2 buffer; or ii) E1E2 buffer without Tween; or iii) water. The reconstituted peptide solutions were vigorously vortexed for 20 seconds. After vortexing, the peptide solutions were incubated at room temperature with continuous shaking at 300 rpm for 2 hours 30 minutes. Afterwards, peptide solutions were centrifuged at 5000×g for 1 minute. After centrifugation, the concentration of the peptides in the supernatant was measured.

[3] = TP42-2: […] MW= 4543 g/mol; EC= 3105 (secreted protein)
Description: Table printed on a drawing sheet, FIG. 27
Title: TP42-2: […] MW= 4543 g/mol; EC= 3105 (secreted protein)
The patent's description of the figure: FIG. 27 depicts solubility data for a TP33 T-cell epitope polypeptide (SEQ ID NO:279) and a TP42-2 T-cell epitope polypeptide (SEQ ID NO:291).
First reader's note: The sequence, MW and EC of TP42-2 are printed above the table; each row is one solution in which solubility was tested.

Molecule: CC[C@H](C)[C@H](NC(=O)[C@@H](NC(=O)[C@H](CO)NC(=O)[C@H](CC(=O)O)NC(=O)[C@H](Cc1ccccc1)NC(=O)[C@H](CC(=O)O)NC(=O)CNC(=O)[C@@H](NC(=O)[C@H](Cc1ccccc1)NC(=O)CNC(=O)[C@@H](NC(=O)[C@H](CCSC)NC(=O)[C@H](CC(C)C)NC(=O)[C@H](C)NC(=O)[C@H](CC(=O)O)NC(=O)[C@@H](NC(=O)[C@H](C)NC(=O)[C@@H](NC(=O)[C@@H](NC(=O)[C@@H](NC(=O)[C@@H](NC(=O)[C@H](CC(=O)O)NC(=O)CNC(=O)[C@H](CO)NC(=O)[C@@H](NC(=O)[C@@H]1CCCN1C(=O)[C@@H](NC(=O)[C@@H](NC(=O)[C@H](CO)NC(=O)[C@@H](NC(=O)[C@H](CC(=O)O)NC(=O)[C@H](CC(C)C)NC(=O)CNC(=O)[C@H](CCCNC(=N)N)NC(=O)[C@H](Cc1ccc(O)cc1)NC(=O)[C@H](Cc1ccc(O)cc1)NC(=O)[C@H](C)NC(=O)[C@@H](NC(=O)[C@H](C)NC(=O)[C@H](CC(N)=O)NC(=O)[C@@H](N)CC(C)C)C(C)C)C(C)C)C(C)C)[C@@H](C)CC)[C@@H](C)O)C(C)C)C(C)C)C(C)C)C(C)C)[C@@H](C)O)[C@@H](C)O)[C@@H](C)O)C(C)C)C(=O)N[C@@H](CC(=O)O)C(=O)N[C@@H](CCCCN)C(=O)N[C@@H](CCCCN)C(=O)N[C@@H](CCCCN)C(=O)O
- solubility in E1E2 buffer (in words) [1]: much lower solubility

Molecule: GTEGEIPFYGKAIPLEQIKGGRHLIFCHSKKKCDELAAKLTG [TP42] [listing 1 of 2 here]
- Measured Concentration (FIG. 6): 0.079 mg/mL
- Solubility (%) (FIG. 6): 12%

Molecule: GTEGEIPFYGKAIPLEQIKGGRHLIFCHSKKKCDELAAKLTG [TP42] [listing 2 of 2 here]
- visible precipitation in E1E2 buffer ([1]; Protocol 1, 1 mg peptide per ml E1E2 buffer, after vortexing and centrifugation at 10,000×g): precipitation was visible
- solubility in E1E2 buffer (in words) [1]: much lower solubility
- solubility (in words) [2]: good solubility

Molecule: GVYLLPRRGPRLGVRATRKTSERSQPRGRRQPIPKARRSEGRSWAQPGYP [TP50-C]
- solubility [1]: ≥ 1000 µg/mL
- solubility in E1E2 buffer (in words) [1]: good solubility

Molecule: ILRRHVGPGEGAVQWMNRLIAFASRGNHVSPTHYVPESDASARVTQIL [TP48]
- solubility (in words) [2]: good solubility

Molecule: ILRRHVGPGEGAVQWMNRLIAFASRGNHVSPTHYVPESDASARVTQILKKK [TP48-(Lys)3]
- solubility in E1E2 buffer (in words) [1]: good solubility

Molecule: KGGRHLIFCHSKKKCDELAAKLTGLGLNAVAYYRGLDVSVIP [TP42-2]
- Solubility | Measured [3]: 415 µg/mL and 215 µg/mL and 233 µg/mL
- Solubility | Percent (%) [3]: 83% and 43% and 47%

Molecule: KSTKVPAAYAAQGYKVLVLNPSVAATLGFGAYMSK [TP35-NS3]
- solubility [1]: ≥ 1000 µg/mL
- solubility in E1E2 buffer (in words) [1]: good solubility

Molecule: KSTKVPAAYAAQGYKVLVLNPSVAATLGFGAYMSKKKK [TP35-NS3-(Lys)3]
- solubility in E1E2 buffer (in words) [1]: good solubility
